# Experimental data taken from patent US4269717A, “Boiler additives for oxygen scavenging” (priority 1980, dated 1981).
# Read-outs that look alike come from different tables or passages of the source.
# Tests used:
# [1] = Experimental: A second more extensive group of potential oxygen scavengers were compared, again using a small laboratory boiler and oxygen saturated feed water containing sodium hydroxide. […] The hydrazine salts among this group are no less toxic than hydrazine and therefore were eliminated from further study. […] In addition, the carbohydrazide was preferred because it is a solid at room temperature and could therefore be used in dry formulations.
# INITIAL SCREENING AT 227-239° F.
# Solubility in water = format: physicochemical
# [2] = Carbohydrazide vs. hydrazine in oxygen removal, once-through apparatus (Table III); settings: for % O2 Removal / Final O2: initial O2 7.7 ppm, 227-239° F., pH about 10.5
# Experimental: A once-through experimental apparatus for simulating boiler water transport was utilized in this example. Water temperature in this example was maintained at about 227°-239° F. and pH at about 10.5.
# [3] = Oxygen scavenging in heated copper coil apparatus (FIG. 1); settings: 135° F.; pH 9.0; initial O2 7.7 ppm; corresponding scavenger:oxygen levels
# Experimental: Another series of tests comparing hydrazine and carbohydrazide were carried out with the results presented in graphic form in FIG. 1. These tests were carried out at a temperature of 135° F. and a pH of 9.0 to prevent hydrolysis of the carbohydrazide.
# The apparatus used including a reciprocating pump drawing water from a water reservoir and moving it through a heated copper coil at a rate of about 37 ml/minute. The coil was mounted in a cooling column and dissolved oxygen was measured at its outlet. The initial oxygen reading taken at this point for these tests was 7.7 ppm.
# After the initial oxygen reading was taken, the scavenger being tested was injected into the feed line before the reciprocating pump.
# [4] = Metal passivation in experimental firerod boiler (Table IV)
# From the text: Metal passivation studies were undertaken using an experimental firerod boiler under the following test conditions:
# 10 boiler water concentrations
# 40 ppm M alkalinity (as CaCO3)
# A blank containing no oxygen scavenger was followed by test runs with hydrazine, carbohydrazide, and sodium sulfite.
# *Tubes ranked by appearance of metal surface.
# [5] = Carbohydrazide low temperature hydrolysis (Table V); format: physicochemical; set-up: Hydrazine By Hydrolysis: unit not given here; settings: for Hydrazine By Hydrolysis / Percent Hydrolysis / ppm Hydrazine: 1,000 ppm
# Experimental: Low temperature hydrolysis studies of carbohydrazide were carried out using reagent grade carbohydrazide containing approximately 2.7±0.1% hydrazine as an impurity. A 1,000 ppm carbohydrazide solution and a 100 ppm hydrazine solution were prepared with deaerated, deionized water. Half of the carbohydrazide solution was adjusted to pH 10.2 with sodium hydroxide and the other half was left at its original pH of 6.9. The solutions were poured into Nessler tubes to overflowing and sealed with stoppers fitted with hypodermic needles to allow pressure release with minimum air contact. Four samples of both of the carbohydrazide solutions and two samples of the hydrazine control were stored at varying temperatures for varying periods of time, all as reported in Table V below.
# [6] = format: physicochemical; settings: for Final Hydrazine Level / Percent Hydrolysis: fed at 100 ppm, pH 8.0, 600 p.s.i.
# From the text: High temperature hydrolysis studies were next carried out again using reagent grade carbohydrazide containing approximately 2% hydrazine as an impurity. The apparatus used in this work was the once-through experimental apparatus for simulating boiler water transport referred to in Example 2, with feedwater pH set at 8.0 and system pressure at 600 p.s.i.
# ^1 Carbohydrazide was fed at 100 ppm; complete hydrolysis of the
# carbohydrazide would theoretically yield 71.1 ppm N2 H4.
# [7] = Corrosion control under static storage conditions; settings: 160 moles or more of carbohydrazide per mole of oxygen
# From the text: The amount of carbohydrazide required to effectively scavenge oxygen from the boiler water is dependent upon the amount of oxygen actually present therein. It is generally desirable that at least 0.5 moles of carbohydrazide be used per mole of oxygen. These minimum levels of carbohydrazide will have the added benefit of effectively passivating metal surfaces. Of course, levels of carbohydrazide considerably in excess of 0.5 moles per mole of oxygen may be required, particularly for treating boiler water under static storage conditions.
# [8] = pH 6.9, Room Temp. (77° F.), 2 days
# [9] = pH 6.9, Room Temp. (77° F.), 4 days
# [10] = pH 6.9, Room Temp. (77° F.), 6 days
# [11] = pH 10.2, Room Temp. (77° F.), 2 days
# [12] = pH 10.2, Room Temp. (77° F.), 4 days
# [13] = pH 10.2, Room Temp. (77° F.), 6 days
# [14] = 282 °F., residence time 14.5 min
# [15] = 343 °F., residence time 14.5 min
# [16] = 400 °F., residence time 14.5 min
# [17] = 400 °F., residence time 15.0 min
structure (smiles),measurement,setting,value
"NNC(=O)NN [Carbohydrazide, N, N' diaminourea]",Scavenger ranking of the remaining two compounds,[1],the best scavenger
same,Oxygen scavenging activity relative to hydrazine,"[1]; 227-239° F., Table II",activity comparable to hydrazine
same,% O2 Removal,"[1]; initial O2 40 ppb, 227-239° F.",87.5%
same,Final O2,"[1]; initial O2 40 ppb, 227-239° F.",5 ppb
same,Solubility in water,Solubility in water,freely soluble in water
same,% O2 Removal,[2]; ppm scavenger/ppm O2 0.05/1,14.3%
same,Final O2,[2]; ppm scavenger/ppm O2 0.05/1,6.60 ppm
same,% O2 Removal,[2]; ppm scavenger/ppm O2 0.5/1,57.4%
same,Final O2,[2]; ppm scavenger/ppm O2 0.5/1,3.28 ppm
same,% O2 Removal,[2]; ppm scavenger/ppm O2 5.0/1,98.7%
same,Final O2,[2]; ppm scavenger/ppm O2 5.0/1,0.10 ppm
same,Amount needed for oxygen removal achieved with a given concentration of hydrazine,"[2]; vs hydrazine, Table III",half as much
same,Oxygen scavenging relative to hydrazine,[3],superior to the hydrazine
same,Tube Rank (by appearance of metal surface),"[4]; dosage 1 ppm, 600 p.s.i., 48 hour test",1
same,Metal passivation effectiveness,"[4]; under the test conditions, Table IV",the most effective metal passivator
same,Hydrolysis at 120° F.,[5]; 120° F.,no hydrolysis occured
same,Hydrolysis above the original free hydrazine level,[5]; 180° F.,3%
same,Hydrazine By Hydrolysis,"[5]; pH 6.9, 120° F., 2 days",0
same,Percent Hydrolysis,"[5]; pH 6.9, 120° F., 2 days",2.7%
same,ppm Hydrazine,"[5]; pH 6.9, 120° F., 2 days",18.9 ppm
same,Hydrazine By Hydrolysis,"[5]; pH 6.9, 120° F., 4 days",0
same,Percent Hydrolysis,"[5]; pH 6.9, 120° F., 4 days",2.6%
same,ppm Hydrazine,"[5]; pH 6.9, 120° F., 4 days",18.8 ppm
same,Hydrazine By Hydrolysis,"[5]; pH 6.9, 120° F., 6 days",0
same,Percent Hydrolysis,"[5]; pH 6.9, 120° F., 6 days",2.6%
same,ppm Hydrazine,"[5]; pH 6.9, 120° F., 6 days",18.3 ppm
same,Hydrazine By Hydrolysis,"[5]; pH 6.9, 180° F., 2 days",1.3
same,Percent Hydrolysis,"[5]; pH 6.9, 180° F., 2 days",4.0%
same,ppm Hydrazine,"[5]; pH 6.9, 180° F., 2 days",28.4 ppm
same,Hydrazine By Hydrolysis,"[5]; pH 6.9, 180° F., 4 days",2.3
same,Percent Hydrolysis,"[5]; pH 6.9, 180° F., 4 days",5.0%
same,ppm Hydrazine,"[5]; pH 6.9, 180° F., 4 days",35.4 ppm
same,Hydrazine By Hydrolysis,"[5]; pH 6.9, 180° F., 6 days",3.0
same,Percent Hydrolysis,"[5]; pH 6.9, 180° F., 6 days",5.7%
same,ppm Hydrazine,"[5]; pH 6.9, 180° F., 6 days",40.2 ppm
same,Hydrazine By Hydrolysis,[5]; [8],0
same,Percent Hydrolysis,[5]; [8],2.8%
same,ppm Hydrazine,[5]; [8],19.7 ppm
same,Hydrazine By Hydrolysis,[5]; [9],0
same,Percent Hydrolysis,[5]; [9],2.7%
same,ppm Hydrazine,[5]; [9],19.1 ppm
same,Hydrazine By Hydrolysis,[5]; [10],0
same,Percent Hydrolysis,[5]; [10],2.6%
same,ppm Hydrazine,[5]; [10],"18,7 ppm"
same,Hydrazine By Hydrolysis,"[5]; pH 6.9, time 0",0
same,Percent Hydrolysis,"[5]; pH 6.9, time 0",2.7%
same,ppm Hydrazine,"[5]; pH 6.9, time 0",19.0 ppm
same,Hydrazine By Hydrolysis,"[5]; pH 10.2, 120° F., 2 days",0
same,Percent Hydrolysis,"[5]; pH 10.2, 120° F., 2 days",2.8%
same,ppm Hydrazine,"[5]; pH 10.2, 120° F., 2 days",20.0 ppm
same,Hydrazine By Hydrolysis,"[5]; pH 10.2, 120° F., 4 days",0
same,Percent Hydrolysis,"[5]; pH 10.2, 120° F., 4 days",2.8%
same,ppm Hydrazine,"[5]; pH 10.2, 120° F., 4 days",19.8 ppm
same,Hydrazine By Hydrolysis,"[5]; pH 10.2, 120° F., 6 days",0
same,Percent Hydrolysis,"[5]; pH 10.2, 120° F., 6 days",2.7%
same,ppm Hydrazine,"[5]; pH 10.2, 120° F., 6 days",19.3 ppm
same,Hydrazine By Hydrolysis,"[5]; pH 10.2, 180° F., 2 days",1.4
same,Percent Hydrolysis,"[5]; pH 10.2, 180° F., 2 days",4.1%
same,ppm Hydrazine,"[5]; pH 10.2, 180° F., 2 days",29.0 ppm
same,Hydrazine By Hydrolysis,"[5]; pH 10.2, 180° F., 4 days",2.1
same,Percent Hydrolysis,"[5]; pH 10.2, 180° F., 4 days",4.8%
same,ppm Hydrazine,"[5]; pH 10.2, 180° F., 4 days",34.2 ppm
same,Hydrazine By Hydrolysis,"[5]; pH 10.2, 180° F., 6 days",2.7
same,Percent Hydrolysis,"[5]; pH 10.2, 180° F., 6 days",5.4%
same,ppm Hydrazine,"[5]; pH 10.2, 180° F., 6 days",38.6 ppm
same,Hydrazine By Hydrolysis,[5]; [11],0
same,Percent Hydrolysis,[5]; [11],2.8%
same,ppm Hydrazine,[5]; [11],20.2 ppm
same,Hydrazine By Hydrolysis,[5]; [12],0.1
same,Percent Hydrolysis,[5]; [12],2.9%
same,ppm Hydrazine,[5]; [12],20.5 ppm
same,Hydrazine By Hydrolysis,[5]; [13],0
same,Percent Hydrolysis,[5]; [13],2.8%
same,ppm Hydrazine,[5]; [13],20.1 ppm
same,Hydrazine By Hydrolysis,"[5]; pH 10.2, time 0",0
same,Percent Hydrolysis,"[5]; pH 10.2, time 0",2.7%
same,ppm Hydrazine,"[5]; pH 10.2, time 0",19.1 ppm
same,pH dependence of hydrolysis values,[5]; pH range of 7-10,did not vary significantly
same,Hydrolysis at room temperature,[5]; room temperature,no hydrolysis occured
same,Hydrolysis at 220° F.,[6]; 220° F.,minimal
same,Hydrolysis at 282° F.,[6]; 282° F.,minimal
same,Final Hydrazine Level,[6]; [14],7 ppm
same,Percent Hydrolysis,[6]; [14],7.0%
same,Hydrolysis at 340° F. through 400° F.,[6]; 340° F. through 400° F.,still not complete
same,Final Hydrazine Level,[6]; [15],45 ppm
same,Percent Hydrolysis,[6]; [15],60.5%
same,Final Hydrazine Level,[6]; [16],59 ppm
same,Percent Hydrolysis,[6]; [16],80.2%
same,Final Hydrazine Level,[6]; [17],61 ppm
same,Percent Hydrolysis,[6]; [17],83.0%
same,Hydrazine found,[6]; about 220° F.,less than 7%
same,Percent Hydrolysis,[6]; residence time 14.5 min,0%
same,Final Hydrazine Level,"[6]; temperature 21 °F. (so in the source), residence time 14.5 min",2 ppm
same,Corrosion control under static conditions,[7],effective in controlling corrosion
